The format of series [1] is in vitro ADME, hairless rat. The method, then:
• Freshly excised full thickness hairless rat skin (approximately 1 mm thick) was mounted in between the donor and receptor compartments of the horizontal diffusion cells with the stratum corneum facing the donor compartment. • The receptor compartment contained phosphate buffer (4 ml) at pH 7.4, and the donor compartment contained one of the following tetracycline hydrochloride solutions (4 ml): water (pH 2.1, 37 mg/ml), citrate buffer (pH 3.0, 9 mg/ml), phosphate buffer (pH 8.0, 0.7 mg/ml), or Teorell buffer (pH 8.3, 5.9 mg/ml, pH 11.9: 20 mg/ml). • The apparatus was maintained at 32° C., with constant stirring in both the donor and receptor compartments using magnetic stir bars to maintain sink conditions. • Silver/Silver chloride electrodes were used for iontophoresis. The area of skin exposed to the donor was 0.64 cm^2. • Current densities of 0.2 and 0.3 mA/cm^2 were applied for 1 h; and current density of 0.4 mA/cm^2 was applied for 30 min, 1 h and 2 h. Samples were collected for a period of 10 h. Both anodal and cathodal iontophoresis were performed. • At predetermined intervals, 0.5 ml of sample was collected from the receptor chamber and replenished with 0.5 ml of phosphate buffer (pH7.4). Analysis of Tetracycline Hydrochloride: • Samples from the receptor chamber were analyzed for the amount of tetracycline hydrochloride using a Shimadzu HPLC with a reverse phase column (Phenomenex, Luna C18 column with 5μ pore size). • The composition of the mobile phase used was 0.01N oxalic acid and acetonitrile (75:25) at a flow rate of 0.8 ml/min using a detection wavelength of 360 nm. Results: • The cumulative amount of drug permeating through the skin passively at the end of 10 h was 1.7±0.45 μg/cm^2 (FIG. 1). • Iontophoresis improved the delivery of the drug across the skin. i) The cumulative amount permeated through the skin at the end of 10 h by anodal iontophoresis for 1 h was 11.18±2.02 μg/cm^2. ii) The cumulative amount of the drug delivered at the end of 10 h by cathodal iontophoresis for 1 h was 19.65±6.9 μg/cm^2 (FIGS. 1 and 2). The current density used was 0.4 mA/cm^2 in both the cases. • The cumulative amount of drug permeated through the skin increased with an increase in the current density. The cumulative amount of the drug permeated through the skin over 10 hours increased from 5.85±0.72 μg/cm^2 to 19.65±6.9 μg/cm^2 with an increase in the current density from 0.2 mA/cm^2 to 0.4 mA/cm^2 (FIG. 3). • The amount of drug permeated through the skin increased with an increase in the duration of current application. […] For a donor concentration of 10 mg/ml, 22.11 μg/cm^2 of tetracycline hydrochloride permeated through the skin as compared to 8.25 μg/cm^2 delivered from a donor concentration of 2.5 mg/ml (FIG. 5). For all the above studies except anodal iontophoresis, tetracycline hydrochloride solution in borate buffer at pH 9.4 was employed. For anodal iontophoresis, tetracycline hydrochloride in citrate buffer at pH 3.0 has been used.

A short description of series [2]: In vivo intracutaneous microdialysis with cathodal iontophoresis. Particulars: 10 mg/mL, pH ~9.3; cathodal iontophoresis 200-400 μA/cm^2 for 0.5-4 hours; 4 hours of application time. The arrangement: species or system hairless rat. As for the experimental part: In vivo microdialysis studies were undertaken to determine the effect of current and time on the transdermal delivery of tetracycline using iontophoresis. The study placed a tetracycline formulation (10 mg/mL, pH ˜9.3) in a cartridge designed for iontophoresis. […] Cathodal iontophoresis current was varied from 200-400 μA/cm^2 for a period of 0.5-4 hours. The microdialysis dialysate samples collected were analyzed using HPLC. Potential skin irritation was monitored using chromameter, laser Doppler velocimetry (LDV) and transepidermal water loss (TEWL).

Structures can show the parent of a compound that is named as a salt. Where two headings read alike, the source gives them in different places.

Turning to `CN(C)[C@@H]1C(O)=C(C(N)=O)C(=O)[C@@]2(O)C(O)=C3C(=O)c4c(O)cccc4[C@@](C)(O)[C@H]3C[C@@H]12` [tetracycline hydrochloride], the “amount of tetracycline hydrochloride permeated through the skin” value in series [1] (hairless, rat, 2.5 mg/ml, pH 9.4) is listed as 8.25 μg/cm^2. Also, the “amount of tetracycline hydrochloride permeated through the skin” value in series [1] (hairless, rat, 10 mg/ml, pH 9.4) amounted to 22.11 μg/cm^2. Besides, in series [1] (hairless, rat, 10 h, 9 mg/ml, pH 3), the “cumulative amount permeated through the skin at the end of 10 h by anodal iontophoresis” value is 11.18±2.02 μg/cm^2. In addition, in series [1] (hairless, rat, 10 h, pH 9.4), the “cumulative amount of drug permeating through the skin passively at the end of 10 h” value turned out to be 1.7±0.45 μg/cm^2, the “cumulative amount of the drug delivered at the end of 10 h by cathodal iontophoresis” value worked out at 19.65±6.9 μg/cm^2 and the “cumulative amount of the drug permeated through the skin over 10 hours” value worked out at 5.85±0.72 μg/cm^2. The “cumulative amount of drug permeated through the skin, cathodal iontophoresis compared to anodal iontophoresis or passive delivery” value in series [1] (pH 9.4) is “significantly increased”.
Turning to `CN(C)[C@@H]1C(O)=C(C(N)=O)C(=O)[C@@]2(O)C(O)=C3C(=O)c4c(O)cccc4[C@@](C)(O)[C@H]3C[C@@H]12` [tetracycline], the “tetracycline concentration in the skin by microdialysis as a function of duration of current application” value in series [2] is recorded as “highest amount of tetracycline concentration”.

Values taken from patent US20070292492A1, “PHARMACEUTICAL FORMULATIONS FOR IONTOPHORETIC TETRACYCLINE ANTIBIOTIC DELIVERY” (priority 2006, published 2007).
